Source: ChEMBL document CHEMBL2029210, “Synthesis of constrained benzocinnolinone analogues of CEP-26401 (irdabisant) as potent, selective histamine H3 receptor inverse agonists” (Bioorg Med Chem Lett, 2012)

Experiments:
[1] = biological target: Histamine H2 receptor (Homo sapiens) (UniProt P25021); assay: Binding affinity to human histamine H2 receptor at 10 uM by radioligand binding assay
[2] = biological target: Histamine H4 receptor (Homo sapiens) (UniProt Q9H3N8); assay: Binding affinity to human histamine H4 receptor at 10 uM by radioligand binding assay
Histamine H3 receptor [3] = biological target: Histamine H3 receptor (Rattus norvegicus, UniProt Q9QYN8); assay: Displacement of [3H]NAMH from rat histamine H3 receptor expressed in CHO cell membrane; assay type: cell membranes
[4] = biological target: Histamine H1 receptor (Homo sapiens) (UniProt P35367); assay: Binding affinity to human histamine H1 receptor at 10 uM by radioligand binding assay
Histamine H3 receptor [5] = biological target: T1, Histamine H3 receptor (Homo sapiens, UniProt Q9Y5N1); assay: Displacement of [3H]NAMH from human histamine H3 receptor expressed in CHO cell membrane; assay type: cell membranes
[6] = AUC in rat at 5 mg/kg, po; assay type: ADME, organism-based; design: dose 5 mg/kg, route oral; conditions: plasma
[7] = (§1) Half life in rat at 1 mg/kg, iv; assay type: ADME, organism-based; design: dose 1 mg/kg, route intravenous; conditions: in vivo
[8] = Clearance in rat at 1 mg/kg, iv; assay type: ADME, organism-based; design: dose 1 mg/kg, route intravenous; conditions: in vivo
[9] = Oral bioavailability in rat at 5 mg/kg; assay type: ADME, organism-based; conditions: in vivo
[10] = Cmax in rat at 5 mg/kg, po; assay type: ADME, organism-based; design: dose 5 mg/kg, route oral; conditions: in vivo
[11] = (§2) Volume of distribution in rat at 1 mg/kg, iv; assay type: ADME, organism-based; design: dose 1 mg/kg, route intravenous; conditions: in vivo
Homo sapiens [12] = organism: Homo sapiens; assay: Selectivity ratio of Ki for human H4 receptor to Ki for human H3 receptor
Homo sapiens [13] = organism: Homo sapiens; assay: Selectivity ratio of Ki for human H2 receptor to Ki for human H3 receptor
Homo sapiens [14] = organism: Homo sapiens; assay: Selectivity ratio of Ki for human H1 receptor to Ki for human H3 receptor
[15] = Ratio of drug uptake in brain to plasma in rat at 5 mg/kg, po; assay type: ADME, organism-based; design: dose 5 mg/kg, route oral; conditions: read-out: BPR
Rattus norvegicus [16] = assay: as §1; assay type: ADME, organism-based; design: dose 1 mg/kg, route intravenous; conditions: in vivo
[17] = Drug uptake in rat brain at 5 mg/kg, po after 6 hrs; assay type: ADME, organism-based; design: dose 5 mg/kg, route oral; conditions: read-out: Drug uptake
Rattus norvegicus [18] = assay: as §2; assay type: ADME, organism-based; design: dose 1 mg/kg, route intravenous; conditions: in vivo
Cytochrome P450 1A2 = biological target: T2, Cytochrome P450 1A2 (Homo sapiens, UniProt P05177); assay: Inhibition of CYP1A2; assay type: ADME
T2 sequence (P05177 whole entry): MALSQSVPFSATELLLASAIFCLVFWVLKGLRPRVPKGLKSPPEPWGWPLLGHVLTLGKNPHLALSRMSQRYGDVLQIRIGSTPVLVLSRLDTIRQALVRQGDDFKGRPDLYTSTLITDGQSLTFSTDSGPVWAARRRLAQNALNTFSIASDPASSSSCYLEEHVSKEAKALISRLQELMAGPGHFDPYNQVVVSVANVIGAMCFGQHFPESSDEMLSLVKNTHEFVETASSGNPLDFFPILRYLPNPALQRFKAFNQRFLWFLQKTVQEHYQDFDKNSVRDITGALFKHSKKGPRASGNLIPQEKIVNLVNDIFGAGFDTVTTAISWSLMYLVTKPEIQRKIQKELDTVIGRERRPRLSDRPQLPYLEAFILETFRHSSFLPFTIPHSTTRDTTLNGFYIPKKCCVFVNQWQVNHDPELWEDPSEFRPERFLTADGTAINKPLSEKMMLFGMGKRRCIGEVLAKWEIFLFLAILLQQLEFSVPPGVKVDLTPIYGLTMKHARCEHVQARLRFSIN

Histamine H3 receptor [19] = biological target: T1, Histamine H3 receptor; assay: Inverse agonist activity at human H3 receptor by [35S]GTPgamma binding assay; assay type: functional
hERG (KCNH2) = hERG (KCNH2) (Homo sapiens, UniProt Q12809); assay: Displacement of astemizole from human ERG at 10 uM; conditions: probe astemizole
Cytochrome P450 3A4 = Cytochrome P450 3A4 (Homo sapiens, UniProt P08684); assay: Inhibition of CYP3A4; assay type: ADME
Cytochrome P450 2C9 = Cytochrome P450 2C9 (Homo sapiens, UniProt P11712); assay: Inhibition of CYP2C9; assay type: ADME
Cytochrome P450 2D6 = Cytochrome P450 2D6 (Homo sapiens, UniProt P10635); assay: Inhibition of CYP2D6; assay type: ADME
Cytochrome P450 2C19 = Cytochrome P450 2C19 (Homo sapiens, UniProt P33261); assay: Inhibition of CYP2C19; assay type: ADME

Histamine H4 receptor (Homo sapiens), sequence (Q9H3N8 whole entry): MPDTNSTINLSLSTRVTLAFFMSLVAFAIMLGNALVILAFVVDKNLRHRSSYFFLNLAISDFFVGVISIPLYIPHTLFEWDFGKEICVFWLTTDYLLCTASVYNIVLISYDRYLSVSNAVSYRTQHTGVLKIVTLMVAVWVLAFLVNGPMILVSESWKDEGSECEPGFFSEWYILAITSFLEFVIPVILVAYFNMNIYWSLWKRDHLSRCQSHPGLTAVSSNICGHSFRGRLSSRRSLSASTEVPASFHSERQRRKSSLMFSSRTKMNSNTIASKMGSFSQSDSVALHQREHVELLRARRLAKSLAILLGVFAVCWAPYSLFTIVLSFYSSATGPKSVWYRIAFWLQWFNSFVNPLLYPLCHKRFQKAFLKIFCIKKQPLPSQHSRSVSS
Histamine H2 receptor (Homo sapiens), sequence (P25021 whole entry): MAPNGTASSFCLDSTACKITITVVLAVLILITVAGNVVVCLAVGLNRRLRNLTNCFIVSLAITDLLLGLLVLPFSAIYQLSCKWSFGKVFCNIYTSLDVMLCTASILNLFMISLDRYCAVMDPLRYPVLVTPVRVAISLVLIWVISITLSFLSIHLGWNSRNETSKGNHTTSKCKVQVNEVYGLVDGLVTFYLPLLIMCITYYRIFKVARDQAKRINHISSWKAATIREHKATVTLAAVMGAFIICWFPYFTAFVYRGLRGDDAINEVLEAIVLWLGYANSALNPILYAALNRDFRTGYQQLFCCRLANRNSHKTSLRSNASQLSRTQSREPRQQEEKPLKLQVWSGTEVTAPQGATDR
T1 sequence (Q9Y5N1 whole entry): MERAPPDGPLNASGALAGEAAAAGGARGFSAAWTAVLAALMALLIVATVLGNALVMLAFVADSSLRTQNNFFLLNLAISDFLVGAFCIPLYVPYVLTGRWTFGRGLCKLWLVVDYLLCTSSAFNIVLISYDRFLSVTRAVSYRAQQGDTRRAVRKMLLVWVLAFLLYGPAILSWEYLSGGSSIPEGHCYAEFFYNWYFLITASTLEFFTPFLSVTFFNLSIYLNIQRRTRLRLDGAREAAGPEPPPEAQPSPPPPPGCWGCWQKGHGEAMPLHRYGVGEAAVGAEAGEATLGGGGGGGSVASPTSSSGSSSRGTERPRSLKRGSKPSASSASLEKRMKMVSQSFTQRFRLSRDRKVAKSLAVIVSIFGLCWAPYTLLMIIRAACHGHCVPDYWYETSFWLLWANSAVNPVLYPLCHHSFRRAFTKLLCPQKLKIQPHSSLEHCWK
Histamine H3 receptor (Rattus norvegicus, UniProt Q9QYN8), sequence (Q9QYN8 whole entry): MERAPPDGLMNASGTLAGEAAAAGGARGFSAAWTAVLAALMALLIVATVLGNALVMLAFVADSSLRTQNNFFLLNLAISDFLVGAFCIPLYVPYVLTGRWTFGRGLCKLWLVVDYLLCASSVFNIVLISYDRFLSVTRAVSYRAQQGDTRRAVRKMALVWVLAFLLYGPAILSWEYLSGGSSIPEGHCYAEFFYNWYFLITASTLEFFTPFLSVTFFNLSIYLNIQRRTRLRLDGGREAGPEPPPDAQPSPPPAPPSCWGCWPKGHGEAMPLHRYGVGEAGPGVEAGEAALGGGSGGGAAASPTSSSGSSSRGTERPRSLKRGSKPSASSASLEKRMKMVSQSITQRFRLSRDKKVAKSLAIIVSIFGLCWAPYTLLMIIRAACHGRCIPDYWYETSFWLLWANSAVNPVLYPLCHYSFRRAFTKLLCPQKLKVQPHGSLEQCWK
Histamine H1 receptor (Homo sapiens), sequence (P35367 whole entry): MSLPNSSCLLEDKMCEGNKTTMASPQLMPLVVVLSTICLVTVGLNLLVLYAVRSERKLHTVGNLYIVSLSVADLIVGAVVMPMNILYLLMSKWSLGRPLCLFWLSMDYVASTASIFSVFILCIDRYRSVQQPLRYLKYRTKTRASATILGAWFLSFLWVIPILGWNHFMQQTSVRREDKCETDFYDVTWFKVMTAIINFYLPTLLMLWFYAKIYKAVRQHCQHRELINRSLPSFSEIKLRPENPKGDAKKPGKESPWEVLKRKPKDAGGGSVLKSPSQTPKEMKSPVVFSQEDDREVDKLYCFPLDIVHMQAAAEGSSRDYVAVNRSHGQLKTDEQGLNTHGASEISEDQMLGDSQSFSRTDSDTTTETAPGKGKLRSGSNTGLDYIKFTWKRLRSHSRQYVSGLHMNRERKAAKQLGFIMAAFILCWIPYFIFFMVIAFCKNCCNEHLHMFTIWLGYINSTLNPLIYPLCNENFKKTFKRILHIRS
hERG (KCNH2), sequence (Q12809 whole entry): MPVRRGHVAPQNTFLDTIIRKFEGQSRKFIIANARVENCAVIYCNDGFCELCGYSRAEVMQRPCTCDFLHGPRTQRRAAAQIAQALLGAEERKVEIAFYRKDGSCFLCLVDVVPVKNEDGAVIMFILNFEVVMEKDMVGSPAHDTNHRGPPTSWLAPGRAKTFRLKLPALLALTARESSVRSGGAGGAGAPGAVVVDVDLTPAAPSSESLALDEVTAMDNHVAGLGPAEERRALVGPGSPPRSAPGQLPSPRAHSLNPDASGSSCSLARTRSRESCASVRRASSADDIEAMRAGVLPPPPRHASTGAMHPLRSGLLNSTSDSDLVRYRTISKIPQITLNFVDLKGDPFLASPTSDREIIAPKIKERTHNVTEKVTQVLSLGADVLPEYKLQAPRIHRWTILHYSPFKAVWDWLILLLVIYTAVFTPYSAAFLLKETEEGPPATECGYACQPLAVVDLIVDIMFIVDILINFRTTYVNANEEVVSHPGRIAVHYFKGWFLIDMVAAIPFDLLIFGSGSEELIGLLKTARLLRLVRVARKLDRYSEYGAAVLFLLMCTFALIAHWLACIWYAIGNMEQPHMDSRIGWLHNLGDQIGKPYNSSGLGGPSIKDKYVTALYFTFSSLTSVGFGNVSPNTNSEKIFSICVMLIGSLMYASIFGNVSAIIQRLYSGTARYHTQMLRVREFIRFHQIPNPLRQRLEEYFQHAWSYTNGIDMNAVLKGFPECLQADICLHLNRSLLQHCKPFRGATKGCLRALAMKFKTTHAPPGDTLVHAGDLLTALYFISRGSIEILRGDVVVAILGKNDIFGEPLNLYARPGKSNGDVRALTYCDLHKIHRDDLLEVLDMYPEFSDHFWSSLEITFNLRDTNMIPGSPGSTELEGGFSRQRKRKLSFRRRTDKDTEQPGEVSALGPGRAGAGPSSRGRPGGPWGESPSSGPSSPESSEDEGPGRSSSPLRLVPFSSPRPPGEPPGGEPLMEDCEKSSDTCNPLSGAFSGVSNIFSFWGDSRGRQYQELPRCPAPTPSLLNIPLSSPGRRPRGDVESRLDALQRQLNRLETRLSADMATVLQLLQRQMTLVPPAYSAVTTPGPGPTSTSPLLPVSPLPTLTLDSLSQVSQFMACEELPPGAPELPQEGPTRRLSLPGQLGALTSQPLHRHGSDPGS
Cytochrome P450 2D6, sequence (P10635 whole entry): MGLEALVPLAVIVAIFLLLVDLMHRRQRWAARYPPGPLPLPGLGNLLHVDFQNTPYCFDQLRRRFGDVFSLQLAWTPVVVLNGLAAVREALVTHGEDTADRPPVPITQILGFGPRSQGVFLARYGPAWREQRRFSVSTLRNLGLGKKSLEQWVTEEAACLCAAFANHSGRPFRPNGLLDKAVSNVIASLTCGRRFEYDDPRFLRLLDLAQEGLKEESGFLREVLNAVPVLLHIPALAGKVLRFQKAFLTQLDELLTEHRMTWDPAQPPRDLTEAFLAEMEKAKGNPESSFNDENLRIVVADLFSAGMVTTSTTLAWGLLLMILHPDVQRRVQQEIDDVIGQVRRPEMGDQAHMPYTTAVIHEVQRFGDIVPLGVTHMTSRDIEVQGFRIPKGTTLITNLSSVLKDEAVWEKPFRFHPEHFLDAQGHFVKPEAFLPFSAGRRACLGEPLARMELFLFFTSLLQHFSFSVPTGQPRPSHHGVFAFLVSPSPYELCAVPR
Cytochrome P450 2C9, sequence (P11712 whole entry): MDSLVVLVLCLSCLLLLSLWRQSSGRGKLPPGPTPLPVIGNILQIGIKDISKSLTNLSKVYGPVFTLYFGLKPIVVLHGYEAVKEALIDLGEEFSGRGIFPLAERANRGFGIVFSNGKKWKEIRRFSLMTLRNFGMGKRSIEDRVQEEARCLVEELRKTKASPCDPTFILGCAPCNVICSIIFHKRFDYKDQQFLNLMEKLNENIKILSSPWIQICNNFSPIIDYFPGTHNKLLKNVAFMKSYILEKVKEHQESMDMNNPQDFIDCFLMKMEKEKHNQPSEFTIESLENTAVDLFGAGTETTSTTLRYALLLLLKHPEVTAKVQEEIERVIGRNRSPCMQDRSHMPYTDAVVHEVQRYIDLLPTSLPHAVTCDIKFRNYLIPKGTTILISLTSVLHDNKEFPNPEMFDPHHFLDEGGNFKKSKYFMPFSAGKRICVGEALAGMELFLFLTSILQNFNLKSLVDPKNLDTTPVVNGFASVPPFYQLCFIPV
Cytochrome P450 3A4, sequence (P08684 whole entry): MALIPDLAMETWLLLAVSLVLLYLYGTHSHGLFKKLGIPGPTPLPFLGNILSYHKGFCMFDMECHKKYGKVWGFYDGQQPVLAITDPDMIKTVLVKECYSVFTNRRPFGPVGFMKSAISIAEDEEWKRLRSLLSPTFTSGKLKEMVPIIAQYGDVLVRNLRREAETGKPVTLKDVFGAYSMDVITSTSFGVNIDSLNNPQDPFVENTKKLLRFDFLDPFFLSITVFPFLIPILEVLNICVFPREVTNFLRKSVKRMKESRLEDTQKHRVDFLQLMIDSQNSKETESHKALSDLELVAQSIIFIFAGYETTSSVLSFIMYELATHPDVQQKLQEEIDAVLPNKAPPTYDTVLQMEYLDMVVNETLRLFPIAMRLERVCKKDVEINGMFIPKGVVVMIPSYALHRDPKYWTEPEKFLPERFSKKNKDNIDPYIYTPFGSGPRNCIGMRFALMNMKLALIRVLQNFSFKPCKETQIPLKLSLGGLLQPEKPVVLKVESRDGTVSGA

Structure (SMILES)	inhibition [1] [%]	inhibition [2] [%]	Ki (Histamine H3 receptor [3]) [nM]	inhibition [4] [%]	Ki (Histamine H3 receptor [5]) [nM]	AUC [6] [ng·h/mL]	half-life [7] [min]	clearance [8] [mL/min/kg]	bioavailability [9] [%]	Cmax [10] [ng/mL]	Vd [11] [L/kg]	Ratio Ki (Homo sapiens [12])	Ratio Ki (Homo sapiens [13])	Ratio Ki (Homo sapiens [14])	also measured
C[C@@H]1CCCN1CCCOc1ccc2c(c1)CCc1n[nH]c(=O)cc1-2	< 45	< 45	19	< 45	6.2										
O=c1cc2c(nn1Cc1ccccc1)-c1ccc(OCCCN3CCCCC3)cc1CC2			140		105										
C[C@@H]1CCCN1CCCOc1ccc2c(c1)CCC1CC(=O)NN=C21 (mixture of isomers)			53		15	96	42	93	11	27	6				
C[C@@H]1CCCN1CCCOc1ccc2c(c1)CCc1cc(=O)[nH]nc1-2	< 40	< 40	14	< 40	4.3	191	84	11	2	34	1.2	> 1000	> 1000	> 1000	
O=C1CC2CCc3cc(OC4CCN(C5CCC5)CC4)ccc3C2=NN1 (racemic)			26		17	468			44	75					Kp [15]: 5.2; t1/2 (Rattus norvegicus [16]): 54 min; concentration at 6 h [17]: 780 nM; Vd (Rattus norvegicus [18]): 6.6 L/kg
C[C@@H]1CCCN1CCCOc1ccc2c(c1)CCc1cc(=O)n(C)nc1-2	< 40	< 40	8.3	< 40	3.6	80	24	36	3	24	1.3	> 1000	> 1000	> 1000	IC50 (Cytochrome P450 1A2): > 30000 nM; EC50 (Histamine H3 receptor [19]): 1.7 nM; inhibition at 10 µM (hERG (KCNH2)): 34%; IC50 (Cytochrome P450 3A4): > 30000 nM; IC50 (Cytochrome P450 2C9): > 30000 nM; IC50 (Cytochrome P450 2D6): > 30000 nM; IC50 (Cytochrome P450 2C19): > 30000 nM
CC(C)n1nc2c(cc1=O)CCc1cc(OCCCN3CCC[C@H]3C)ccc1-2	< 40	< 40	17	< 40	4.2							> 1000	> 1000	> 1000	
C[C@@H]1CCCN1CCCOc1ccc2c(c1)CCc1cc(=O)n(-c3ccccc3)nc1-2			23		16										
